Assay results reported in publication PMC8536830 (Current Biology, 2021).

Assays:
[1] = biological target: T1, LGC-50 S335D, T348D, S353A (Caenorhabditis elegans, UniProt P41849, S335D/S353A/); experiment: Two-electrode voltage clamp, 5-HT evoked dose response, LGC-50 phosphomimic mutant; assay type: cell-based, C. elegans
T1 construct: Plasmid: KSM: lgc-50 (cDNA, S335D, T348A, S353A); expressed in transfected cells; host or cells: Xenopus laevis oocytes injected with cRNA (probably plasmid pIH134)
Source text: In addition to this region, we also investigated three upstream predicted phosphorylation sites. Phosphorylation of the M3/4 loop has previously been implicated in the trafficking and cell surface recycling of GABAA receptors.[23]^,[24] The first site in the M3/4 loop of LGC-50, S335, is predicted to be a cdc2 site, and T348 and S353 are predicted protein kinase C (PKC) or PKA sites (Table S2).[25]^,[26] We introduced both phosphorylation-dead alanine mutations and phosphomimic aspartate mutations into these sites to assess their effect on receptor trafficking. […]
(§1) Two-electrode voltage clamp recordings were carried out using the Robocyte2 recording system or a manual TEVC set up, using an OC-725D amplifier (Multi Channel Systems, Reutlingen, Germany) and paired with a custom-made recording chamber and agar bridges from reference and bath electrodes. […] Data was recorded using WinWCP or RoboCyte2 control software, manual data was filtered at 10 Hz.
(§2) Dose response curves were calculated from the peak current during a 10 s agonist stimulation in ND96 solution, with a 60 s ND96 wash in between doses. […] Normalized dose response data was fitted to a nonlinear curve using a four parameters variable slope and the EC50 and Hill slope was calculated. […] Kinetic measurements were calculated from a 60 s agonist perfusion. […]

[2] = biological target: T2, LGC-50 Δ363-397 (Caenorhabditis elegans, UniProt P41849, DEL363-397); experiment: Two-electrode voltage clamp, 5-HT evoked dose response, LGC-50 deletion mutant Δ363-397; assay type: cell-based, C. elegans
T2 construct: Plasmid: KSM: lgc-50 (cDNA, Δ363 - 397); expressed in transfected cells; host or cells: Xenopus laevis oocytes injected with cRNA (plasmid pJML138)
Experimental: To identify such domains, we tested the effects of deletion mutations in the LGC-50 M3/4 loop (Figure 5A).
Defolliculated Xenopus laevis oocytes were obtained from EcoCyte Bioscience (Dortmund, Germany) and maintained in ND96 (in mM: 96 NaCl, 1 MgCl2, 5 HEPES, 1.8 CaCl2, 2 KCl) solution at 16°C for 3-5 days.
5'-capped cRNA was synthesized in vitro using the T3 mMessage mMachine transcription kit according to manufacturer’s protocol (Thermo Fischer Scientific, CA, USA). RNA was then purified using the GeneJET RNA purification kit (Thermo Fischer Scientific, CA, USA) prior to cRNA injection. […]
as §1, §2

T2 sequence (P41849 other isoform, or with tags, fused parts or gaps DEL363-397): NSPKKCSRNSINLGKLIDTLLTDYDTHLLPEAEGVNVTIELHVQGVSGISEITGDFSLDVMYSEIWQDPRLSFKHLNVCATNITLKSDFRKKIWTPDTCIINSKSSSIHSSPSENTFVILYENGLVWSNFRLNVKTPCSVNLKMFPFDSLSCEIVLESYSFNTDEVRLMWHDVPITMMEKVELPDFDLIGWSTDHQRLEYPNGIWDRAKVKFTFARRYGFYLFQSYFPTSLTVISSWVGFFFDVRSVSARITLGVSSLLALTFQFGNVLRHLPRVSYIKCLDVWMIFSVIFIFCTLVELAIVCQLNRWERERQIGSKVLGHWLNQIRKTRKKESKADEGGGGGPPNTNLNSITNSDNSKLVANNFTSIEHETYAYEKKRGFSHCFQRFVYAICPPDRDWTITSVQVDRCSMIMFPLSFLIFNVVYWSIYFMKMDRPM
T1 sequence (P41849 20-491 S335D/T348A/S353A): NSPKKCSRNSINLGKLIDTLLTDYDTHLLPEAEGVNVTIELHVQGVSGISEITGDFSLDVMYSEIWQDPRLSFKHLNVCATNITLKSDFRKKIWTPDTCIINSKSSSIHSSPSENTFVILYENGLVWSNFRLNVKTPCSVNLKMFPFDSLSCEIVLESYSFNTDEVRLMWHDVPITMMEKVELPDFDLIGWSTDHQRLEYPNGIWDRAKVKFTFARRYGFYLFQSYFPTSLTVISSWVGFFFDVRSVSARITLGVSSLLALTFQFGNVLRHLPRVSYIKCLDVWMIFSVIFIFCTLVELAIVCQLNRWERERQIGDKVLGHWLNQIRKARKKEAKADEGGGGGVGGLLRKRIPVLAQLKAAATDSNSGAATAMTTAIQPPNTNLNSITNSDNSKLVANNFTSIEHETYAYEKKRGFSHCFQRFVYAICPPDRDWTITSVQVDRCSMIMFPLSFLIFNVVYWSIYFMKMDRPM

For `NCCc1c[nH]c2ccc(O)cc12` [5-HT, serotonin], the EC50 [1] was 720 nM and the EC50 [2] was 930 nM.
